# Measurements taken from patent publication US10669242B2 (priority 2016, dated 2020).
# Target: T1, recombinant glucosyltransferase domain of C. difficile Toxin B/TcdB (Clostridioides difficile, UniProt P18177)
# T1 construct: 6-His (C); purchased R&D Systems 6246-GT
# Experiment: biochemical
# T1 sequence (P18177 1-543): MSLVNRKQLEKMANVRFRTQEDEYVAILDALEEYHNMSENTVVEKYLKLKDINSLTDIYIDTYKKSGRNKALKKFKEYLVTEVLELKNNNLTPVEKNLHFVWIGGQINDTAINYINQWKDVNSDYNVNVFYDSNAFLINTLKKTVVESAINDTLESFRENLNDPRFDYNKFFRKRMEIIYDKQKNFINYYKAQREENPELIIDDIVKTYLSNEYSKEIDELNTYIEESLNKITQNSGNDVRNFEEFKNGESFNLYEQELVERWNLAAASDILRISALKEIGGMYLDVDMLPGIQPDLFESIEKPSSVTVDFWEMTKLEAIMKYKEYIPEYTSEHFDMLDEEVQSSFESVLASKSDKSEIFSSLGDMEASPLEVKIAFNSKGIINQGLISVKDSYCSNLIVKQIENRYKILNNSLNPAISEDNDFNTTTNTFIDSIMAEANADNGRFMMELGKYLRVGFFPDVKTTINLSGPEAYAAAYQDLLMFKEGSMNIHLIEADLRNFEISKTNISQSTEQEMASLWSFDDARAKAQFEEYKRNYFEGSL
row,SMILES,IC50 [nM]
1,"Cc1cc(CN2C(=O)c3ccc(Cl)cc3NC(=O)[C@H]2Cc2ccccn2)ccc1C(=O)Nc1ccc(F)cn1 [Example 5ap, (R)-4-((8-chloro-2,5-dioxo-3-(pyridin-2-ylmethyl)-2,3-dihydro-1H-benzo[e][1,4]diazepin-4(5H)-yl)methyl)-N-(5-fluoropyridin-2-yl)-2-methylbenzamide]",< 100
2,"COc1cc(CN2C(=O)c3ccc(Cl)cc3NC(=O)[C@H]2Cc2ccccn2)ccc1C(=O)Nc1ccc(F)cn1 [Example 5aq, (R)-4-((8-chloro-2,5-dioxo-3-(pyridin-2-ylmethyl)-2,3-dihydro-1H-benzo[e][1,4]diazepin-4(5H)-yl)methyl)-N-(5-fluoropyridin-2-yl)-2-methoxybenzamide]",< 100
3,"C[C@@H]1C(=O)Nc2cc(Cl)ccc2C(=O)N1Cc1ccc(C(=O)Nc2ccc(C(F)(F)F)cn2)c(Br)c1 [Example 5ar, (R)-2-bromo-4-((8-chloro-3-methyl-2,5-dioxo-2,3-dihydro-1H-benzo[e][1,4]diazepin-4(5H)-yl)methyl)-N-(5-(trifluoromethyl)pyridin-2-yl)benzamide]",1000 to 10000
4,"Cc1cnc(NC(=O)c2ccc(CN3C(=O)c4ccc(Cl)cc4NC(=O)[C@H]3Cc3ccccn3)cc2Cl)nc1 [Example 5as, (R)-2-chloro-4-((8-chloro-2,5-dioxo-3-(pyridin-2-ylmethyl)-2,3-dihydro-1H-benzo[e][1,4]diazepin-4(5H)-yl)methyl)-N-(5-methylpyrimidin-2-yl)benzamide]",< 100
5,"Cc1cc(CN2C(=O)c3ccc(Cl)cc3NC(=O)[C@H]2Cc2ccccn2)ccc1C(=O)Nc1ccc(C#N)cn1 [Example 5at, (R)-4-((8-chloro-2,5-dioxo-3-(pyridin-2-ylmethyl)-2,3-dihydro-1H-benzo[e][1,4]diazepin-4(5H)-yl)methyl)-N-(5-cyanopyridin-2-yl)-2-methylbenzamide]",< 100
6,"N#Cc1ccc(NC(=O)c2ccc(CN3C(=O)c4ccc(Cl)cc4NC(=O)[C@H]3Cc3ccccn3)cc2Cl)nc1 [Example 5au, (R)-2-chloro-4-((8-chloro-2,5-dioxo-3-(pyridin-2-ylmethyl)-2,3-dihydro-1H-benzo[e][1,4]diazepin-4(5H)-yl)methyl)-N-(5-cyanopyridin-2-yl)benzamide]",< 100
7,"CS(=O)(=O)c1ccc(NC(=O)c2ccc(CN3C(=O)c4ccc(Cl)cc4NC(=O)[C@H]3Cc3ccccn3)cc2Cl)nc1 [Example 5av, (R)-2-chloro-4-((8-chloro-2,5-dioxo-3-(pyridin-2-ylmethyl)-2,3-dihydro-1H-benzo[e][1,4]diazepin-4(5H)-yl)methyl)-N-(5-(methylsulfonyl)pyridin-2-yl)benzamide]",< 100
8,"CC1(C)CN(C(=O)c2ccc(CN3C(=O)c4ccc(Cl)cc4NC(=O)[C@H]3Cc3ccccn3)cc2Cl)c2ncc(C(F)(F)F)cc21 [Example 5aw, (R)-8-chloro-4-(3-chloro-4-(3,3-dimethyl-5-(trifluoromethyl)-2,3-dihydro-1H-pyrrolo[2,3-b]pyridine-1-carbonyl)benzyl)-3-(pyridin-2-ylmethyl)-3,4-dihydro-1H-benzo[e][1,4]diazepine-2,5-dione]",< 100
9,"COc1cnc(NC(=O)[C@H]2CC[C@H](CN3C(=O)c4ccc(Cl)cc4NC(=O)[C@H]3Cc3ccccn3)CC2)nc1 [Example 5ax, (1R,4r)-4-(((R)-8-chloro-2,5-dioxo-3-(pyridin-2-ylmethyl)-2,3-dihydro-1H-benzo[e][1,4]diazepin-4(5H)-yl)methyl)-N-(5-methoxypyrimidin-2-yl)cyclohexanecarboxamide]",< 100
10,"O=C(Nc1ncccn1)c1ccc(CN2C(=O)c3ccc(Cl)cc3NC(=O)[C@H]2Cc2cccnc2)cc1 [Example 5b, (R)-4-((8-chloro-2,5-dioxo-3-(pyridin-3-ylmethyl)-2,3-dihydro-1H-benzo[e][1,4]diazepin-4(5H)-yl)methyl)-N-(pyrimidin-2-yl)benzamide]",< 100
11,"O=C(Nc1cnccn1)c1ccc(CN2C(=O)c3ccc(Cl)cc3NC(=O)[C@H]2Cc2cccnc2)cc1 [Example 5c, (R)-4-((8-chloro-2,5-dioxo-3-(pyridin-3-ylmethyl)-2,3-dihydro-1H-benzo[e][1,4]diazepin-4(5H)-yl)methyl)-N-(pyrazin-2-yl)benzamide]",< 100
12,"O=C(Nc1ccc(Cl)cn1)c1ccc(CN2C(=O)c3ccc(Cl)cc3NC(=O)[C@H]2Cc2cccnc2)cc1 [Example 5d, (R)-4-((8-chloro-2,5-dioxo-3-(pyridin-3-ylmethyl)-2,3-dihydro-1H-benzo[e][1,4]diazepin-4(5H)-yl)methyl)-N-(5-chloropyridin-2-yl)benzamide]",< 100
13,"O=C(Nc1ncccc1Cl)c1ccc(CN2C(=O)c3ccc(Cl)cc3NC(=O)[C@H]2Cc2cccnc2)cc1 [Example 5e, (R)-4-((8-chloro-2,5-dioxo-3-(pyridin-3-ylmethyl)-2,3-dihydro-1H-benzo[e][1,4]diazepin-4(5H)-yl)methyl)-N-(3-chloropyridin-2-yl)benzamide]",100 to 999
14,"O=C(Nc1ccc(C(F)(F)F)cn1)c1ccc(CN2C(=O)c3ccc(Cl)cc3NC(=O)[C@H]2Cc2ccccn2)cc1-c1ccc2c(c1)OCO2 [Example 5f, (R)-2-(benzo[d][1,3]dioxol-5-yl)-4-((8-chloro-2,5-dioxo-3-(pyridin-2-ylmethyl)-2,3-dihydro-1H-benzo[e][1,4]diazepin-4(5H)-yl)methyl)-N-(5-(trifluoromethyl)pyridin-2-yl)benzamide]",100 to 999
15,"COc1ccc(NC(=O)c2ccc(CN3C(=O)c4ccc(Cl)cc4NC(=O)[C@H]3Cc3cccnc3)cc2)nc1 [Example 5g, (R)-4-((8-chloro-2,5-dioxo-3-(pyridin-3-ylmethyl)-2,3-dihydro-1H-benzo[e][1,4]diazepin-4(5H)-yl)methyl)-N-(5-methoxypyridin-2-yl)benzamide]",< 100
16,"Cc1cnc(NC(=O)c2ccc(CN3C(=O)c4ccc(Cl)cc4NC(=O)[C@H]3Cc3cccnc3)cc2)nc1 [Example 5h, (R)-4-((8-chloro-2,5-dioxo-3-(pyridin-3-ylmethyl)-2,3-dihydro-1H-benzo[e][1,4]diazepin-4(5H)-yl)methyl)-N-(5-methylpyrimidin-2-yl)benzamide]",< 100
17,"Cc1ccnc(NC(=O)c2ccc(CN3C(=O)c4ccc(Cl)cc4NC(=O)[C@H]3Cc3cccnc3)cc2)n1 [Example 5i, (R)-4-((8-chloro-2,5-dioxo-3-(pyridin-3-ylmethyl)-2,3-dihydro-1H-benzo[e][1,4]diazepin-4(5H)-yl)methyl)-N-(4-methylpyrimidin-2-yl)benzamide]",< 100
18,COc1cc(NC(=O)c2ccc(CN3C(=O)c4ccc(Cl)cc4NC(=O)[C@H]3Cc3cccnc3)cc2)ncn1 [Example 5j],< 100
19,"CCc1ccc(NC(=O)c2ccc(CN3C(=O)c4ccc(Cl)cc4NC(=O)[C@H]3Cc3cccnc3)cc2)nc1 [Example 5k, (R)-4-((8-chloro-2,5-dioxo-3-(pyridin-3-ylmethyl)-2,3-dihydro-1H-benzo[e][1,4]diazepin-4(5H)-yl)methyl)-N-(5-ethylpyridin-2-yl)benzamide]",< 100
20,"Cc1cnc(NC(=O)c2ccc(CN3C(=O)c4ccc(Cl)cc4NC(=O)[C@H]3Cc3ccccn3)cc2)nc1 [Example 5l, (R)-4-((8-chloro-2,5-dioxo-3-(pyridin-2-ylmethyl)-2,3-dihydro-1H-benzo[e][1,4]diazepin-4(5H)-yl)methyl)-N-(5-methylpyrimidin-2-yl)benzamide]",< 100
21,"COc1cnc(NC(=O)c2ccc(CN3C(=O)c4ccc(Cl)cc4NC(=O)[C@H]3Cc3cccnc3)cc2)nc1 [Example 5m, (R)-4-((8-chloro-2,5-dioxo-3-(pyridin-3-ylmethyl)-2,3-dihydro-1H-benzo[e][1,4]diazepin-4(5H)-yl)methyl)-N-(5-methoxypyrimidin-2-yl)benzamide]",< 100
22,"C[C@@H]1C(=O)Nc2cc(Cl)ccc2C(=O)N1Cc1ccc(C(=O)Nc2ncc3ccccc3n2)cc1 [Example 5n, (R)-4-((8-chloro-3-methyl-2,5-dioxo-2,3-dihydro-1H-benzo[e][1,4]diazepin-4(5H)-yl)methyl)-N-(quinazolin-2-yl)benzamide]",100 to 999
23,"Cc1cncc(NC(=O)c2ccc(CN3C(=O)c4ccc(Cl)cc4NC(=O)[C@H]3C)cc2)n1 [Example 5o, (R)-4-((8-chloro-3-methyl-2,5-dioxo-2,3-dihydro-1H-benzo[e][1,4]diazepin-4(5H)-yl)methyl)-N-(6-methylpyrazin-2-yl)benzamide]",100 to 999
24,"C[C@@H]1C(=O)Nc2cc(Cl)ccc2C(=O)N1Cc1ccc(C(=O)Nc2nc3ccccc3[nH]2)cc1 [Example 5p, (R)-N-(1H-benzo[d]imidazol-2-yl)-4-((8-chloro-3-methyl-2,5-dioxo-2,3-dihydro-1H-benzo[e][1,4]diazepin-4(5H)-yl)methyl)benzamide]",1000 to 10000
25,"O=C(Nc1ccc(C(F)(F)F)cn1)c1ccc(CN2C(=O)c3ccc(Cl)cc3NC(=O)[C@H]2Cc2ccccn2)cc1 [Example 5q, (R)-4-((8-chloro-2,5-dioxo-3-(pyridin-2-ylmethyl)-2,3-dihydro-1H-benzo[e][1,4]diazepin-4(5H)-yl)methyl)-N-(5-(trifluoromethyl)pyridin-2-yl)benzamide]",< 100
26,"COc1cnc(NC(=O)c2ccc(CN3C(=O)c4ccc(Cl)cc4NC(=O)[C@H]3Cc3ccccn3)s2)nc1 [Example 5r, (R)-5-((8-chloro-2,5-dioxo-3-(pyridin-2-ylmethyl)-2,3-dihydro-1H-benzo[e][1,4]diazepin-4(5H)-yl)methyl)-N-(5-methoxypyrimidin-2-yl)thiophene-2-carboxamide]",100 to 999
27,"Cc1cnc(NC(=O)c2ccc(CN3C(=O)c4ccc(Cl)cc4NC(=O)[C@H]3Cc3ccccn3)s2)nc1 [Example 5s, (R)-5-((8-chloro-2,5-dioxo-3-(pyridin-2-ylmethyl)-2,3-dihydro-1H-benzo[e][1,4]diazepin-4(5H)-yl)methyl)-N-(5-methylpyrimidin-2-yl)thiophene-2-carboxamide]",100 to 999
28,"Cc1cnc(NC(=O)c2ccc(CN3C(=O)c4ccc(Cl)cc4NC(=O)[C@H]3Cc3ccccn3)cc2)cn1 [Example 5t, (R)-4-((8-chloro-2,5-dioxo-3-(pyridin-2-ylmethyl)-2,3-dihydro-1H-benzo[e][1,4]diazepin-4(5H)-yl)methyl)-N-(5-methylpyrazin-2-yl)benzamide]",< 100
